From US20090074885A1, “Reversible Hydrophobic Modification of Drugs for Improved Delivery to Cells” (Roche Madison Inc., priority 2003, published 2009)
Where two headings read alike, the source gives them in different places.

Tests used:
[1] = tested on: B16 murine melanoma cells; experiment: CellTiter-Glo luminescent cell viability assay; format: cell-based; conditions: 10 min drug solution exposure, 3 h in media, 24 h culture; up to 112 μl delivery solution per well
Procedure: Cells were seeded at 1×10^4 cells/well in 100 μl of media into 96-well plates on day 0 and cultured for 24 h prior to addition of drug. […] Following 10 min of drug solution exposure, 100 μl of fresh media was added to each well and incubated for 3 h. Drug-containing media was replaced with 100 μl of fresh media and cultured for and additional 24 h.

[2] = tested on: Hepa 1-6 (mouse hepatoma); experiment: WST cytotoxicity assay, Hepa 1-6; format: cell-based
Procedure: (§1) Antiproliferative/Cytotoxic in vitro studies on PI, RRH-PI prodrugs, melphalan, and C12PMMA-melphalan. In vitro cytotoxicity testing was conducted on Hepa 1-6 (mouse hepatoma), SK-OV-3 (human ovarian carcinoma), and MC38 (mouse colon carcinoma) cells using a tetrazolium based assay (WST, Dojindo Molecular Technologies). For the WST assay, Hepa 1-6 (2.0×10^5 cells well), SK-OV-3 (7.5×10^5 cells well), and MC38 (8.5×10^5 cells well) were seeded in 1000 μL media into 12-well plates 24 h prior to testing (starting confluency ˜50%). Following removal of media, drug/prodrug solution was added drop-wise to quadruplicate wells, using the mixing chamber. Effective drug concentrations were calculated from the amount of drug added in the total volume of OS and aqueous solution. Following 4 min of drug solution exposure, the solution was removed, and 1000 μl fresh complete media was added to each well. After the cells were incubated for 24-48 h, WST-1 (20 μl of a 5 mM solution in PBS) and N-methylphenazonium methyl sulfate (PMS, 20 μl 0.2 mM solution in PBS) were added and the cells were incubated for 1-4 h. For testing with MC38 cells, the amounts of WST-1 and PMS were doubled. Following incubation, 100 μl of sample was transferred to quadruplicate wells on a 96-well plate, and the absorbance (438 nm) values were measured on a SPECTRAmax Plus^384 microplate spectrophotometer (Molecular Devices Corporation). Data represents the mean A438 values of 16 wells with standard deviation, corrected for media contribution, and normalized against cells in media with no drug/prodrug treatment (reported as % cell viability±standard deviation).
(§2) The concentration of drug (μM) that is required for 50% inhibition in vitro is reported as the IC50. The reported values were calculated from the best fit line (Excel) for a plot of effective drug concentration against % cell viability, and include the r^2 value. The reported IC50 values for multiple RRH-PI plots are reported as IC50 (μM)±standard deviation.

[3] = tested on: MC38 (mouse colon carcinoma); experiment: WST cytotoxicity assay, MC38; format: cell-based; conditions: MC38, 4 min drug exposure, WST 48 h after
Procedure: as §1, with “For testing with MC38 cells, the amounts of WST-1 and PMS were doubled.” left out, “Data represents the mean A438 values of 16 wells with standard deviation, corrected for media contribution, and normalized against cells in media with no drug/prodrug treatment (reported as % cell viability±standard deviation).” left out

[4] = tested on: SK-OV-3 (human ovarian carcinoma); experiment: WST cytotoxicity assay, SK-OV-3; format: cell-based
Procedure: as §1, §2

[5] = Hydrolysis of V monitored by reaction of liberated melphalan with fluorescamine; format: physicochemical; conditions: pH 6.0; for Half-life: extrapolated to pure buffer (100 mol % H2O)
Procedure: (§3) Analysis of prodrug lability. The prodrugs were tested for their rate of hydrolysis at pH 6.0, 7.2 and 8.5 using fluorescent spectroscopy. Lability studies for C12CON-PI and RRH-PI (rapidly reversible hydrophobic-PI) derivatives were conducted on a Cary Eclipse Fluorescence Spectrophotometer (Varian Inc.).
Alternatively, to solutions of fluorescamine (857 μM in DMSO) were added various amounts of buffer (20 μL, 30 μL, 40 μL, 50 μL, and 70 μL of 100 mM MES buffer, pH 6.0) followed by melphalan or V (249 μM final concentration in DMSO). The fluorescence of the solution (λex=380 nm, λem=464 nm, excitation and emission slit width=5 nm, and emission PMT=600V) was assayed as a function of time (40 min). At each buffer concentration the reaction of fluorescamine and melphalan was more rapid than hydrolytic breakdown of V.
(§4) The resulting curves were normalized for intensity and fit to an exponential equation (Origin) to determine kdetermined for each solution. The kdetermined for each compound at appropriate pH were plotted against the mol % of H2O, and the best fit line was solved for kbuffer for 100 mol % H2O. These derived kbuffer values were used to determine the half-life of the prodrug in pure buffer according to the equation t1/2=1n2/k.

[6] = Trypan blue assay for membrane disruption; format: cell-based
[7] = Dynamic light scattering particle size; format: physicochemical; conditions: following mixing with ITG through mixing chamber
Procedure: (§5) Light Scattering analysis of prodrugs. Particle size was determined by dynamic light scattering on a Zeta Plus (Zeta Potential Analyzer, Brookhaven Instrument Corporation, λ 533 nm, 90°), and results are reported as the size of the most abundant particle (range of particle sizes, counts sec^−1). Fluorescent compounds were also analyzed for particles qualitatively, by measuring for light scattering on a Cary Eclipse Fluorescence Spectrophotometer (Varian Inc.), with λex=λem (300-800 nm, 90° detection). The presence of particles in solution results in an increase in signal detection at 90°. PI and RRH-PI prodrugs were 7.48 mM in DMSO. Melphalan and V were 50 mM in DMSO. The drug/prodrug solutions were mixed and diluted with ITG through the mixing chamber (40 μl OS and 400 μl ITG), and analyzed immediately.

[8] = tested on: SK-OV-3 cells; experiment: Uptake of PI mixed with hydrophobic derivative (membrane damage test), SK-OV-3; format: cell-based, human; conditions: compared to cells treated with PI alone
Procedure: (§6) For experiments conducted with IV, the cells were plated on 6-well plates with cover slips. Following treatment as above, the cover slip was immediately removed and inverted over 1 drop of media for imaging, or the cells were incubated for 1 h prior to removal of the cover slip and imaging. Imaging was conducted on an Axioplan2 fluorescent microscope (Zeiss) and the same fields were imaged with phase contrast illumination, in the rhodamine fluorescence channel (λex=BP 450/12, λem=LP 590 nm filter set), and in the fluorescein fluorescent channel (λex=BP 546/90, λem=LP 515 nm filter set). IV was also mixed with PI and then delivered to SK-OV-3 cells, and the cells were imaged as before. In one protocol, equal amounts of IV (15.0 mM in DMSO) and PI (15.0 mM in DMSO) were combined and the resulting solution was added to cells via the mixing chamber. In a second method, PI was taken up in the ITG solution (0.748 mM) and mixed with IV (7.48 mM in DMSO) in the mixing chamber. Similarly, V (15 mM and 30 mM in DMSO) was mixed with PI and delivered to Hepa 1-6 and SK-OV-3 cells using the second method. The cells were imaged as before following 30 sec-4 min exposure to the drug solution.

[9] = tested on: Hepa 1-6; experiment: Uptake of PI mixed with hydrophobic derivative (membrane damage test), Hepa 1-6; format: cell-based, mouse; conditions: compared to PI alone
Procedure: as §6

[10] = Qualitative 90° light scattering for particles; format: physicochemical; conditions: relative to ITG or PI in ITG
Procedure: as §5

[11] = tested on: SK-OV-3 (human ovarian carcinoma) cells; experiment: In vitro cellular uptake by fluorescence microscopy, SK-OV-3; format: cell-based; conditions: fluorescein channel
Procedure: In Vitro cellular uptake of PI, RRH-PI compounds, and IV evaluated by fluorescence measurements. […] Adherent cells were plated at 2.5×10^5 cells/well on 6-well plates 24 h prior to testing. The growth media was removed from individual wells and the drug/prodrug was immediately added to the well with the mixing chamber. […] After 30 sec the drug solution was removed (aspirated) and 2 ml complete media was added to the cells. Experiments conducted with prodrug that was hydrolyzed prior to application to the cells followed a similar protocol, however the combined solution obtained after passing through the mixing chamber was collected and allowed to sit at ambient temperature for 5 min prior to application on the cells. Experiments conducted with Calcein AM (Invitrogen, 100 μl of 20 μM solution in complete media) followed a similar protocol for drug treatment (4 min treatment). Experiments conducted with SYTOX Green (Invitrogen) followed a similar protocol for drug treatment. […] Each condition was repeated in 2 or 3 wells, and the cells were immediately examined by microscopy. Fluorescent microscopy studies were conducted with a three laser LSM 510 confocal microscope, an Axiovert S100 fluorescent microscope, or an Axioplan2 fluorescent microscope (all Zeiss) equipped with filter sets for the rhodamine fluorescence channel (λex=BP 450/12, λem=LP 590 nm filter set) and the fluorescein fluorescent channel (λex=BP 546/90, λem=LP 515 nm filter set). Imaging was performed with an AxioCam digital camera (Zeiss), with AxioVision imaging software (V 4.5, Zeiss). For all images, identical camera settings and exposure times were used on comparative sample and control images. Images were processed with Photoshop (Adobe) for level and brightness using identical settings between sample and control images. For experiments conducted with IV, the cells were plated on 6-well plates with cover slips. […] Imaging was conducted on an Axioplan2 fluorescent microscope (Zeiss) and the same fields were imaged with phase contrast illumination, in the rhodamine fluorescence channel (λex=BP 450/12, λem=LP 590 nm filter set), and in the fluorescein fluorescent channel (λex=BP 546/90, λem=LP 515 nm filter set). IV was also mixed with PI and then delivered to SK-OV-3 cells, and the cells were imaged as before. In one protocol, equal amounts of IV (15.0 mM in DMSO) and PI (15.0 mM in DMSO) were combined and the resulting solution was added to cells via the mixing chamber. In a second method, PI was taken up in the ITG solution (0.748 mM) and mixed with IV (7.48 mM in DMSO) in the mixing chamber. […] The cells were imaged as before following 30 sec-4 min exposure to the drug solution.

[12] = Analysis of prodrug lability (rate of hydrolysis) of PI derivatives by fluorescent spectroscopy; format: physicochemical; conditions: extrapolated to pure buffer (100 mol % H2O)
Procedure: as §3
To solutions of PI and RRH-prodrugs of PI (7.48 μM in DMSO) were added various amounts of buffer (25 μL, 50 μL, and 100 μL of 20 mM Hepes buffer) at different pH. Upon cleavage of the hydrophobic modification and regeneration of PI, the fluorescence of the solution increased (λex=493 nm, λem=647 nm, excitation and emission slit width=5 nm, and emission PMT=600V) and was assayed as a function of time (20 min).
as §4

[13] = Hepa 1-6, 4 min drug exposure, WST 48 h after, read-out: Mean IC50
[14] = SK-OV-3, 4 min drug exposure, WST 48 h after, read-out: Mean IC50

## CCCCCCCCCCCCCCCCCC[Si](C)(C)N.CCCCCCCCCCCCCCCCCC[Si](C)(C)N.[Cl][Pt][Cl] [BDMODS-CP, Cl2Pt(NH2Si(CH3)2C18H37)2]
[1]
  antiproliferative/cytotoxic effect (RLU): complete cytotoxic effect

## N[C@@H](Cc1ccc(N(CCCl)CCCl)cc1)C(=O)O [Melphalan, reference compound]
[2]; Mus musculus, Hepa1-6, 48 h, read-out: cell viability at highest concentration tested, Hepa 1-6, 48 h, 1458 μM
  viability at 1458 µM: 81%
[2]; Mus musculus, Hepa1-6, read-out: Mean IC50
  IC50: > 1460 µM
[3]; Mus musculus, MC-38
  IC50: 1180 µM
[4]; Homo sapiens, SK-OV-3, 48 h, read-out: cell viability at highest concentration tested, SK-OV-3, 48 h, 1458 μM
  viability at 1458 µM: 70 ± 11%
[4]; Homo sapiens, SK-OV-3, read-out: Mean IC50
  IC50: > 1460 µM

## CCCCCCCCCCCCNC(=O)CCC(=CCC(=O)O)C(=O)NC(Cc1ccc(N(CCCl)CCCl)cc1)C(=O)O (centres unmarked) [V, 3,9-diaza, 2-[4-{bis(2-chloroethyl)amino}phenylmethyl], 5-(2-carboxylethylidine), 4,8-dioxo uncosanoic acid]
[5]
  k: (1.62 min^−1)
  Half-life: 28 s
[5]; listed as C12PMMA-Melphalan (V)
  Half-life: 25.7 s
[2]; [13]
  IC50: 330 µM
[6]
  generalized membrane disruption: neither V or methyl aniline silylated with chloro(dimethyl)octadecylsilane caused generalized membrane disruption
[7]
  range of particle sizes: 36-66 nm
  size of the most abundant particle: 36 nm
[8]
  nuclear PI staining when delivered together with PI: no increased levels of nuclear PI staining were observed
[9]
  nuclear PI staining when delivered together with PI: no increased levels of nuclear PI staining were observed
[3]
  IC50: 304 µM
[4]; [14]
  IC50: 384 µM

## CCCCCCCCCCCC(=O)Nc1ccc2c(c1)c(-c1ccccc1)[n+](CCC[N+](C)(CC)CC)c1cc(NC(=O)CCCCCCCCCCC)ccc21.[I-].[I-] [IV, 3,8-bis-undecylcarbanylamino 5-(3,3-diethyl-3-methylammoniumpropyl) 6-phenyl phenanthridinium diiodide]
[10]
  increase in 90° light scattering signal intensity: 15 fold
[2]; Hepa 1-6, 4 min drug exposure, WST 24 h after, read-out: Mean IC50
  IC50: 585 µM
[2]; [13]
  IC50: 429 µM
[7]
  range of particle sizes: 28-42 nm
  size of the most abundant particle: 36 nm
[11]; after one hour incubation
  fluorescent signal localisation: more defined punctate signal
[11]; immediately following application
  fluorescent signal localisation: diffuse signal was observed along the cell membrane
[8]
  nuclear PI staining when delivered together with PI: no increased levels of nuclear PI staining detected
[4]; SK-OV-3, 4 min drug exposure, WST 24 h after, read-out: Mean IC50
  IC50: 455 µM
[4]; [14]
  IC50: 342 µM
[12]; pH 7.2
  Half-life: non-labile
[12]; pH 8.5
  Half-life: non-labile
